Literature values as cited in patent publication US20030175883A1, “DNA encoding a mammalian LPA receptor and uses thereof” (priority 1997, published 2003).

Assays:
[1] = molecular target: LPA binding sites in membranes from rat brain; details: Thomson et al., 1994
[2] = test system: LPA binding sites in membranes from 3T3 cells; details: Thomson et al., 1994

- Kd [1]: low nanomolar range
Substance: 1-acyl-glycerol-3-phosphate [LPA]
- Kd [2]: low nanomolar range
